Experimental data published in paper PMC12508156, “Non-canonical dihydrolipoyl transacetylase promotes chemotherapy resistance via mitochondrial tetrahydrofolate signaling” (Nature Communications, 2025).
Values joined by “and” are separate entries in the source; they are usually repeats but may differ in a detail not shown here. Equal entries are not always repeated.

Key:
[1] = tested on: KB-3-1cisR xenograft tumors; assay: IHC of KB-3-1cisR xenograft tumors (Ac-K44 MTHFD2, MT-CO2, DLAT, Ki-67); type: in vivo, athymic nu/nu mice; set-up: key: IHC intensity score 0 to 3+; conditions: KB-3-1cisR xenograft tumors (Figure 8J)
Text: Formalin-fixed and paraffin-embedded tumor tissue specimens from HNSCC and NSCLC patients were obtained from the […] Cancer Tissue and Pathology Shared Resources. The Institutional Review Board (IRB) of Emory University approved using human specimens (IRB00003208 - HNSCC, IRB00098377 - NSCLC). Clinical samples were collected with informed consent according to the Health Insurance Portability and Accountability Act. Patients' clinical information was obtained through the […] Technology Applications Shared Resource. Tumors from HNSCC or NSCLC patients who received chemotherapy-containing regimens were used. Immunohistochemistry (IHC) staining of DLAT, acetyl-[…] MTHFD2, MT-CO2, and Ki-67 was performed based on the established protocol. Antigen retrieval was conducted in Tris-EDTA (pH 9.0) for acetyl-[…] MTHFD2 and MT-CO2 and sodium citrate (pH 6.0) for the remaining antigens. […] Assessment of positive DLAT, MT-CO2, and acetyl-[…] MTHFD2 staining intensity within tumor cells was performed using a scoring system ranging from 0 to 3+ based on IHC signal intensity. Mice were subcutaneously injected into the flank with 1 × 10^6 KB-3-1^cisR cells with or without DLAT knockdown. […] Tumors were collected at the experimental endpoint, and tumor proliferation was assessed using Ki-67 IHC staining. The localization, penetration, and efficacy of DMp39 were monitored by assessing the acetyl-[…] levels in tumors and fluorescence imaging analysis using an IVIS imaging system. Drug-induced organ toxicities, including splenomegaly, liver damage, and kidney injury, were monitored by assessing spleen index, alanine transaminase activity, and cystatin C levels in plasma.

RNA synthesis = assay: Global RNA synthesis (5-EU labeling); type: cell-based, human; set-up: unit not given here
Experimental: (§1) Cellular metabolic states were examined through various assays. To gauge the levels of total intracellular or mitochondrial reactive oxygen species (ROS), cells were stained with CM-H2DCFDA or mitoSOX, respectively. Intracellular H2O2, NADPH, acetyl-CoA, and GSH/GSSG ratios were quantified using commercial assay kits as listed in the Reagents. Intracellular ATP levels were determined utilizing the ATP bioluminescent somatic cell assay and normalized to the total protein concentrations. The de novo synthesized RNA and proteins were assessed in cancer cells using commercial assays following the manufacturer’s protocols. In brief, O-propargyl-puromycin or uridine analog, 5-EU, was applied to stop translation or modify RNA. Polypeptides or modified RNA were measured using fluorescent azide with Ex/Em at 494/521 nm. PDC activity was determined by measuring the reduction of NAD+ to NADH during the conversion of pyruvate into acetyl-CoA.

A549cisR cells = assay: Cell viability (CellTiter-Glo); type: cell-based, human; set-up: unit not given here; conditions: 48 h, n=1-3: biological replicates
Experimental: (§2) Cell viability was determined using the CellTiter-Glo Luminescent Cell Viability Assay. […] Subsequently, the cells were cultured in complete medium for an additional 10 days, and the resulting colonies were visualized by staining with crystal violet and quantified using ImageJ software. For cell cycle analysis, cells fixed with 70% ethanol were stained with RNase A (100 µg/mL) and propidium iodide (50 μg/ml) for 30 min at 37 °C, and DNA content distribution was measured using flow cytometry (BD Symphony A3) and analyzed with FlowJo software (v10.9). Apoptotic cell death was assessed via FITC-conjugated annexin V and propidium iodide staining.

PCI-37B cells = assay: Cell viability (CellTiter-Glo); type: cell-based, human; set-up: unit not given here; conditions: 48 h, n=1-3: biological replicates
Experimental: as §2

H1299 cells = assay: Cell viability (CellTiter-Glo); type: cell-based, human; set-up: unit not given here; conditions: 48 h, n=1-3: biological replicates
Experimental: as §2

KB-3-1cisR cells = assay: Cell viability (CellTiter-Glo); type: cell-based, human; set-up: unit not given here; conditions: 48 h, n=1-3: biological replicates
Experimental: as §2

protein synthesis = assay: Global protein synthesis (O-propargyl-puromycin); type: cell-based, human
Experimental: as §1

[2] = A549cisR, pLKO.1, n=1 (Figure 3B)
[3] = A549cisR, pLKO.1, n=2 (Figure 3B)
[4] = A549cisR, pLKO.1, n=3 (Figure 3B)
[5] = A549cisR, shDLAT, n=1 (Figure 3B)
[6] = A549cisR, shDLAT, n=2 (Figure 3B)
[7] = A549cisR, shDLAT, n=3 (Figure 3B)
[8] = KB-3-1cisR, pLKO.1, n=1 (Figure 3B)
[9] = KB-3-1cisR, pLKO.1, n=2 (Figure 3B)
[10] = KB-3-1cisR, pLKO.1, n=3 (Figure 3B)
[11] = KB-3-1cisR, shDLAT, n=1 (Figure 3B)
[12] = KB-3-1cisR, shDLAT, n=2 (Figure 3B)
[13] = KB-3-1cisR, shDLAT, n=3 (Figure 3B)

In the case of `N.N.[Cl][Pt][Cl]` [cisplatin], the “Ac-K44 (IHC score)” value ([1]; n=1) is reported as 2, the “DLAT (IHC score)” value ([1]; n=1) is reported as 2 and the “MT-CO2 (IHC score)” value ([1]; n=1) is reported as 3. For the same molecule, the “Ac-K44 (IHC score)” value ([1]; n=2) was 3, the “DLAT (IHC score)” value ([1]; n=2) was 3 and the “MT-CO2 (IHC score)” value ([1]; n=2) was 3. The “Ac-K44 (IHC score)” value ([1]; n=3) was 2, the “DLAT (IHC score)” value ([1]; n=3) was 2 and the “MT-CO2 (IHC score)” value ([1]; n=3) was 3. The “Ac-K44 (IHC score)” value ([1]; n=4) was 2, the “DLAT (IHC score)” value ([1]; n=4) was 3 and the “MT-CO2 (IHC score)” value ([1]; n=4) was 3. For the same molecule, the “Ac-K44 (IHC score)” value ([1]; n=5) was 2, the “DLAT (IHC score)” value ([1]; n=5) was 3 and the “MT-CO2 (IHC score)” value ([1]; n=5) was 1. For the same molecule, the “Ac-K44 (IHC score)” value ([1]; n=6) was 2, the “DLAT (IHC score)” value ([1]; n=6) was 2 and the “MT-CO2 (IHC score)” value ([1]; n=6) was 3. The “Global RNA synthase” value (RNA synthesis; [2]) was 35.2, the “Global RNA synthase” value (RNA synthesis; [3]) was 34.2 and the “Global RNA synthase” value (RNA synthesis; [4]) was 34.8. For the same molecule, the “Global RNA synthase” value (RNA synthesis; [5]) was 36.6, the “Global RNA synthase” value (RNA synthesis; [6]) was 34 and the “Global RNA synthase” value (RNA synthesis; [7]) was 33. The “Global RNA synthase” value (RNA synthesis; [8]) was 34.8, the “Global RNA synthase” value (RNA synthesis; [9]) was 33.4 and the “Global RNA synthase” value (RNA synthesis; [10]) was 32.4. For the same molecule, the “Global RNA synthase” value (RNA synthesis; [11]) was 33.6, the “Global RNA synthase” value (RNA synthesis; [12]) was 31.4 and the “Global RNA synthase” value (RNA synthesis; [13]) was 31.6. The “cisplatin IC50” value (A549cisR cells; DLAT #1 shRNA knockdown) was 3.049 and 3.093 and 3.477, the “cisplatin IC50” value (A549cisR cells; DLAT #2 shRNA knockdown) was 3.68 and 3.342 and 3.385 and the “cisplatin IC50” value (A549cisR cells; pLKO.1 control) was 10.93 and 10.63 and 11.6. The “cisplatin IC50” value (PCI-37B cells; DLAT #1 shRNA knockdown) was 0.6706 and 0.655 and 0.6977, the “cisplatin IC50” value (PCI-37B cells; DLAT #2 shRNA knockdown) was 1.089 and 1.15 and 1.31 and the “cisplatin IC50” value (PCI-37B cells; pLKO.1 control) was 2.128 and 2.267 and 2.42. The “cisplatin IC50” value (H1299 cells; H1299, DLAT #1 shRNA knockdown) was 4.334 and 4.088 and 4.359, the “cisplatin IC50” value (H1299 cells; H1299, DLAT #2 shRNA knockdown) was 9.212 and 9.08 and 8.246 and the “cisplatin IC50” value (H1299 cells; H1299, pLKO.1 control) was 13.89 and 13.96 and 12.36. For the same molecule, the “cisplatin IC50” value (KB-3-1cisR cells; DLAT #1 shRNA knockdown) was 5.222 and 4.723 and 5.403, the “cisplatin IC50” value (KB-3-1cisR cells; DLAT #2 shRNA knockdown) was 8.292 and 8.491 and 9.402 and the “cisplatin IC50” value (KB-3-1cisR cells; pLKO.1 control) was 35.64 and 37.47 and 39.03. The Global protein synthase (protein synthesis; [2]) was 73.5, the Global protein synthase (protein synthesis; [3]) was 70.6 and the Global protein synthase (protein synthesis; [4]) was 67.1. For the same molecule, the Global protein synthase (protein synthesis; [5]) was 76.2, the Global protein synthase (protein synthesis; [6]) was 75.5 and the Global protein synthase (protein synthesis; [7]) was 73.3. For the same molecule, the Global protein synthase (protein synthesis; [8]) was 101, the Global protein synthase (protein synthesis; [9]) was 98.7 and the Global protein synthase (protein synthesis; [10]) was 101. It also gave a Global protein synthase (protein synthesis; [11]) of 92.8, a Global protein synthase (protein synthesis; [12]) of 100 and a Global protein synthase (protein synthesis; [13]) of 92.4.
